Test results published in patent US10040791B2, “Isoxazole derivative as mutant isocitrate dehydrogenase 1 inhibitor” (Daiichi Sankyo Company, Limited, priority 2014, dated 2018).
Read-outs that look alike come from different tables or passages of the source.

What was measured:
IDH1R132C = IDH1R132C (Homo sapiens (Human), UniProt O75874, R132C); assay: Inhibitory activity against IDH1R132C enzyme (NADPH detection, WST-8); type: biochemical; conditions: 10 nM, residual NADPH detected with WST-8, read-out: Test Example 1 IDH1 R132C IC50
IDH1R132C, sequence (O75874 whole entry R132C): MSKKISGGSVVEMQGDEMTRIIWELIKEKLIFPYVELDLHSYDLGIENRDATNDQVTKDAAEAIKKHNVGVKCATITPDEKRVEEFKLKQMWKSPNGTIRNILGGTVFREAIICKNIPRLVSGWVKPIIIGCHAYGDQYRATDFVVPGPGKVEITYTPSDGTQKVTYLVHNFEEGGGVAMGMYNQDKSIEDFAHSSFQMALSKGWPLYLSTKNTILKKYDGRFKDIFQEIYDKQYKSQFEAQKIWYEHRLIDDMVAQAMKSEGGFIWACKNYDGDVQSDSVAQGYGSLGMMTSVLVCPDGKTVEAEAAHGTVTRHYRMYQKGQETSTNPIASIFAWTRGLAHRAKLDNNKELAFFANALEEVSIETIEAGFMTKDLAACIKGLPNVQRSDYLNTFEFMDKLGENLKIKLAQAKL
Method: After transformation of Rosetta 2 (DE3) E. coli, the expression of the protein was induced with IPTG.
While NADPH-derived fluorescence was occasionally monitored, the reaction was terminated by the addition of 5 μL of 0.5 M EDTA before consumption of NADPH. 5 μL of WST-8 reagent (Dojindo Laboratories, #CK04) was further added and mixed therewith. 15 minutes later, the absorbance at 450 nm was measured using a plate reader (PerkinElmer, Inc., EnVision). The observed absorbance value reflects the amount of residual NADPH. From the absorbance data, the enzyme inhibitory activity of each compound at each concentration was calculated and analyzed using medical statistical analysis software GraphPad Prism to calculate an IC50 value.

[1] = test system: HT-1080 cells expressing IDH1R132C; assay: 2-HG production inhibitory activity using HT1080 cell; type: cell-based, human; conditions: Homo sapiens
Method: Then, 100 μL of growth medium B was added to each well, further 25 μL of a solution of each compound diluted to a predetermined concentration with growth medium B was added to each well, and the cells were incubated at 37° C. for 2 days under 5% CO2. […] Then, 150 μL of ultrapure water was further added to each well, and the mixture was stirred by pipetting and stored at −20° C.
The preserved solutions were thawed at room temperature.

[2] = HT-1080, 2-HG production, HT1080 cells, read-out: Test Example 3 IC50

| Compound | IC50 (IDH1R132C) [µM] | IC50 [1, 2] [nM] | IC50 ([1]; HT-1080, read-out: Test Example 3 IC50 (nM)) [nM] |
| --- | --- | --- | --- |
| COc1cc(Cl)cc(Cl)c1-c1noc(C(C)(C)F)c1C(=O)n1cc(C)c2c(/C=C/C(=O)O)cccc21 [Example 58, (2E)-3-(1-{[3-(2,4-Dichloro-6-methoxyphenyl)-5-(2-fluoropropan-2-yl)-1,2-oxazol-4-yl]carbonyl}-3-methyl-1H-indol-4-yl)prop-2-enoic acid] | 0.178 | 295 | – |
| CC(=O)c1cn(C(=O)c2c(-c3c(Cl)cc(Cl)cc3Cl)noc2C(C)(C)F)c2cccc(/C=C/C(=O)O)c12 [Example 64, (2E)-3-(3-Acetyl-1-{[5-(2-fluoropropan-2-yl)-3-(2,4,6-trichlorophenyl)-1,2-oxazol-4-yl]carbonyl}-1H-indol-4-yl)prop-2-enoic acid] | 0.888 | > 2000 | – |
| C=Cc1ccc(-c2onc(-c3c(Cl)cc(Cl)cc3Cl)c2C(=O)n2ccc3c(/C=C/C(=O)O)cccc32)cn1 [Example 73, (2E)-3-(1-{[5-(6-Ethenylpyridin-3-yl)-3-(2,4,6-trichlorophenyl)-1,2-oxazol-4-yl]carbonyl}-1H-indol-4-yl)prop-2-enoic acid] | 0.208 | – | 7 |
| CC1(c2onc(-c3c(Cl)cccc3Cl)c2C(=O)n2ccc3c(/C=C/C(=O)O)cccc32)COC1 [Example 75, (2E)-3-(1-{[3-(2,6-Dichlorophenyl)-5-(3-methyloxetan-3-yl)-1,2-oxazol-4-yl]carbonyl}-1H-indol-4-yl)prop-2-enoic acid] | 0.118 | 138 | – |
| COC1(c2onc(-c3c(Cl)cccc3Cl)c2C(=O)n2ccc3c(/C=C/C(=O)O)cccc32)COC1 [Example 76, (2E)-3-(1-{[3-(2,6-Dichlorophenyl)-5-(3-methoxyoxetan-3-yl)-1,2-oxazol-4-yl]carbonyl}-1H-indol-4-yl)prop-2-enoic acid] | 0.094 | 118 | – |
| CC1(c2onc(-c3c(Cl)cccc3Cl)c2C(=O)n2ccc3c(/C=C/C(=O)O)cccc32)CCO1 (stereo not drawn) [Example 77, (2E)-3-(1-{[3-(2,6-Dichlorophenyl)-5-(2-methyloxetan-2-yl)-1,2-oxazol-4-yl]carbonyl}-1H-indol-4-yl)prop-2-enoic acid] | 0.094 | 428 | – |
| COCC1(c2onc(-c3c(Cl)cc(Cl)cc3Cl)c2C(=O)n2cc(C)c3c(/C=C/C(=O)O)cccc32)CCC1 [Example 80, (2E)-3-(1-{[5-[1-(Methoxymethyl)cyclobutyl]-3-(2,4,6-trichlorophenyl)-1,2-oxazol-4-yl]carbonyl}-3-methyl-1H-indol-4-yl)prop-2-enoic acid] | 0.335 | 99 | – |
| Cc1cn(C(=O)c2c(-c3c(Cl)cc(Cl)cc3Cl)noc2C2(N(C)C)CC2)c2cccc(/C=C/C(=O)O)c12 [Example 82, (2E)-3-(1-{[5-[1-(Dimethylamino)cyclopropyl]-3-(2,4,6-trichlorophenyl)-1,2-oxazol-4-yl]carbonyl}-3-methyl-1H-indol-4-yl)prop-2-enoic acid] | 0.096 | 10 | – |
| CNC(C)(C)c1onc(-c2c(Cl)cc(Cl)cc2Cl)c1C(=O)n1cc(C)c2c(/C=C/C(=O)O)cccc21 [Example 84, (2E)-3-[3-Methyl-1-({5-[2-(methylamino)propan-2-yl]-3-(2,4,6-trichlorophenyl)-1,2-oxazol-4-yl]carbonyl}-1H-indol-4-yl)prop-2-enoic acid] | 0.08 | 15 | – |
| CNC(C)(C)c1onc(-c2c(Cl)cc(Cl)cc2Cl)c1C(=O)n1cc2c3c(cccc31)/C(=C/C(=O)O)CC2 [Example 85, (2E)-[1-({5-[2-(Methylamino)propan-2-yl]-3-(2,4,6-trichlorophenyl)-1,2-oxazol-4-yl}carbonyl)-3,4-dihydrobenzo[cd]indol-5(1H)-ylidene]ethanoic acid] | 0.099 | 9 | – |
| CNC1(c2onc(-c3c(Cl)cc(Cl)cc3Cl)c2C(=O)n2cc3c4c(cccc42)/C(=C/C(=O)O)CC3)CC1 [Example 86, (2E)-[1-({5-[1-(Methylamino)cyclopropyl]-3-(2,4,6-trichlorophenyl)-1,2-oxazol-4-yl}carbonyl)-3,4-dihydrobenzo[cd]indol-5(1H)-ylidene]ethanoic acid] | 0.079 | 33 | – |
| Cc1cn(C(=O)c2c(-c3c(Cl)cc(Cl)cc3Cl)noc2C2(CN(C)C)CCC2)c2cccc(/C=C/C(=O)O)c12 [Example 88, (2E)-3-(1-{[5-{1-[(Dimethylamino)methyl]cyclobutyl}-3-(2,4,6-trichlorophenyl)-1,2-oxazol-4-yl]carbonyl}-3-methyl-1H-indol-4-yl)prop-2-enoic acid] | 0.158 | 61 | – |
| Cc1cn(C(=O)c2c(-c3c(Cl)cc(Cl)cc3Cl)noc2C2(C(=O)N(C)C)CCC2)c2cccc(/C=C/C(=O)O)c12 [Example 89, (2E)-3-(1-{[5-[1-(Dimethylcarbamoyl)cyclobutyl]-3-(2,4,6-trichlorophenyl)-1,2-oxazol-4-yl]carbonyl}-3-methyl-1H-indol-4-yl)prop-2-enoic acid] | 0.185 | 37 | – |
| Cc1cn(C(=O)c2c(-c3c(Cl)cc(Cl)cc3Cl)noc2C2(N)CCC2)c2cccc(/C=C/C(=O)O)c12 [Example 90, (2E)-3-(1-{[5-(1-Aminocyclobutyl)-3-(2,4,6-trichlorophenyl)-1,2-oxazol-4-yl]carbonyl}-3-methyl-1H-indol-4-yl)prop-2-enoic acid] | 0.059 | 36 | – |
| Cc1cn(C(=O)c2c(-c3c(Cl)cc(Cl)cc3Cl)noc2C(C)(C)N(C)C)c2cccc(/C=C/C(=O)O)c12 [Example 91, (2E)-3-[1-({5-[2-(Dimethylamino)propan-2-yl]-3-(2,4,6-trichlorophenyl)-1,2-oxazol-4-yl}carbonyl)-3-methyl-1H-indol-4-yl]prop-2-enoic acid] | 0.12 | 23 | – |
| CN(C)C1(c2onc(-c3c(Cl)cc(Cl)cc3Cl)c2C(=O)n2cc3c4c(cccc42)/C(=C/C(=O)O)CC3)CC1 [Example 92] | 0.08 | 9 | – |
| C=CC(=O)N1CCCC(c2onc(-c3c(Cl)cc(Cl)cc3Cl)c2C(=O)n2ccc3c(/C=C/C(=O)O)cccc32)C1 (stereo not drawn) [Example 96] | 0.422 | 290 | – |
| C=CC(=O)N1CC(OC)(c2onc(-c3c(Cl)cc(Cl)cc3Cl)c2C(=O)n2ccc3c(/C=C/C(=O)O)cccc32)C1 [Example 97] | 0.164 | 162 | – |
| C=CC(=O)N1CC(C)(c2onc(-c3c(Cl)cc(Cl)cc3Cl)c2C(=O)n2ccc3c(/C=C/C(=O)O)cccc32)C1 [Example 98] | 0.116 | 34 | – |
| C#CC(=O)N1CC(c2onc(-c3c(Cl)cc(Cl)cc3Cl)c2C(=O)n2ccc3c(/C=C/C(=O)O)cccc32)C1 [Example 101] | 0.189 | 32 | – |
| C=CC(=O)N1CCC(c2onc(-c3c(Cl)cccc3Cl)c2C(=O)n2ccc3c(/C=C/C(=O)O)cccc32)CC1 [Example 102] | 0.117 | 50 | – |
| C=CC(=O)N1CCC(C)(c2onc(-c3c(Cl)cc(Cl)cc3Cl)c2C(=O)n2ccc3c(/C=C/C(=O)O)cccc32)CC1 [Example 111] | 0.188 | 10 | – |
| C=CC(=O)N1CCC(O)(c2onc(-c3c(Cl)cc(Cl)cc3Cl)c2C(=O)n2cc(C)c3c(/C=C/C(=O)O)cccc32)CC1 [Example 123] | 0.149 | 13 | – |
| C=CC(=O)N1CC2C(C1)C2c1onc(-c2c(Cl)cc(Cl)cc2Cl)c1C(=O)n1cc(C)c2c(/C=C/C(=O)O)cccc21 (stereo not drawn) [Example 124] | 0.125 | 22 | – |
| C=CC(=O)N1CCC(c2onc(-c3c(Cl)cc(Cl)cc3Cl)c2C(=O)n2cc(C)c3c(/C=C/C(=O)O)cccc32)(N(C)C)CC1 [Example 126] | 0.149 | 8 | – |
| C=CC(=O)N1CCC(c2onc(-c3ccc(Cl)c(F)c3Cl)c2C(=O)n2cc(C)c3c(/C=C/C(=O)O)cccc32)CC1 [Example 129] | 0.182 | 10 | – |
| C=CC(=O)N1CCC(c2noc(-c3c(Cl)cc(Cl)cc3Cl)c2C(=O)n2ccc3c(/C=C/C(=O)O)cccc32)CC1 [Example 132, (2E)-3-(1-{[3-(1-Acryloylpiperidin-4-yl)-5-(2,4,6-trichlorophenyl)-1,2-oxazol-4-yl]carbonyl}-1H-indol-4-yl)prop-2-enoic acid] | 0.279 | 28 | – |
| CN(C)c1onc(-c2c(Cl)cccc2Cl)c1C(=O)n1ccc2c(/C=C/C(=O)O)cccc21 [Example 133, (2E)-3-(1-{[3-(2,6-Dichlorophenyl)-5-(dimethylamino)-1,2-oxazol-4-yl]carbonyl}-1H-indol-4-yl)prop-2-enoic acid] | 0.093 | 390 | – |
| CCN(CC)c1onc(-c2c(Cl)cccc2Cl)c1C(=O)n1ccc2c(/C=C/C(=O)O)cccc21 [Example 134, (2E)-3-(1-{[3-(2,6-Dichlorophenyl)-5-(diethylamino)-1,2-oxazol-4-yl]carbonyl}-1H-indol-4-yl)prop-2-enoic acid] | 0.143 | 347 | – |
| O=C(O)/C=C/c1cccc2c1ccn2C(=O)c1c(-c2c(Cl)cccc2Cl)noc1N1CCCC1 [Example 135, (2E)-3-(1-{[3-(2,6-Dichlorophenyl)-5-(pyrrolidin-1-yl)-1,2-oxazol-4-yl]carbonyl}-1H-indol-4-yl)prop-2-enoic acid] | 0.122 | 376 | – |
